Results from ChEMBL document CHEMBL5325461, “Effect of a new squalene synthase inhibitor on an ApoE-/- mouse model of atherosclerosis” (Bioorg Med Chem, 2023).
Calls of active or inactive are those of the source. The rule behind the calls is not given here.

Tests used:
Mus musculus [1] = assay: Antiatherosclerotic activity in atherogenic western diet fed ApoE-/- C57BL/6 mouse model assessed as reduction in atheromatic spots in aortic sinus at 56 umol/kg, ip administered twice daily for 3.5 months by H&E staining based analysis; type: functional, organism-based; conditions: dose 56.0 µmol/kg
[2] = Hepatotoxicity in atherogenic western diet fed ApoE-/- C57BL/6 mouse model assessed as effect on GGT level at 56 umol/kg, ip administered twice daily for 3.5 months; type: toxicity, organism-based; conditions: in vivo, 2555 h, dose 56 µmol/kg
Mus musculus [3] = assay: Antiatherosclerotic activity in atherogenic western diet fed ApoE-/- C57BL/6 mouse model assessed as effect on HDL/LDL index in plasma at 56 umol/kg, ip administered twice daily for 3.5 months; type: functional, organism-based; conditions: dose 56.0 µmol/kg
[4] = Hepatotoxicity in atherogenic western diet fed ApoE-/- C57BL/6 mouse model assessed as degeneration at 56 umol/kg, ip administered twice daily for 3.5 months; type: toxicity, organism-based; conditions: in vivo, 2555 h, dose 56 µmol/kg
Mus musculus [5] = assay: Antiatherosclerotic activity in atherogenic western diet fed ApoE-/- C57BL/6 mouse model assessed as reduction in atherosclerosis severity in ascending aorta at 56 umol/kg, ip administered twice daily for 3.5 months by H&E staining based analysis; type: functional, organism-based; conditions: dose 56.0 µmol/kg
Mus musculus [6] = assay: Antihyperglycemic activity in atherogenic western diet fed ApoE-/- C57BL/6 mouse model assessed as decrease in glucose level at 56 umol/kg, ip administered twice daily for 3.5 months by glucometer analysis relative to control; type: functional; design: scale not given: the % may be the effect or the level left; conditions: dose 56 µmol/kg, 2555 h
Mus musculus [7] = assay: Antiatherosclerotic activity in atherogenic western diet fed ApoE-/- C57BL/6 mouse model assessed as reduction in atheromatic lesions in aortic arch at 56 umol/kg, ip administered twice daily for 3.5 months by H&E staining based analysis; type: functional, organism-based; conditions: dose 56.0 µmol/kg
Mus musculus [8] = assay: Antihypercholesterolemic activity in atherogenic western diet fed SKH2 mouse model assessed as increase in HDL level at 56 umol/kg, ip administered twice daily for 3.5 months relative to control; type: functional; conditions: dose 56 µmol/kg, 2555 h
[9] = Hepatotoxicity in atherogenic western diet fed ApoE-/- C57BL/6 mouse model assessed as increase in SGOT level at 56 umol/kg, ip administered twice daily for 3.5 months; type: toxicity, organism-based; conditions: in vivo, 2555 h, dose 56 µmol/kg
[10] = Hepatotoxicity in atherogenic western diet fed ApoE-/- C57BL/6 mouse model assessed as edema at 56 umol/kg, ip administered twice daily for 3.5 months; type: toxicity, organism-based; conditions: in vivo, 2555 h, dose 56 µmol/kg
Mus musculus [11] = assay: Antiatherosclerotic activity in atherogenic western diet fed ApoE-/- C57BL/6 mouse model assessed as decrease in total cholesterol level in plasma at 56 umol/kg, ip administered twice daily for 3.5 months; type: functional, organism-based; conditions: dose 56.0 µmol/kg
[12] = Hepatotoxicity in atherogenic western diet fed ApoE-/- C57BL/6 mouse model assessed as effect on ALP level at 56 umol/kg, ip administered twice daily for 3.5 months; type: toxicity, organism-based; conditions: in vivo, 2555 h, dose 56 µmol/kg
[13] = Hepatotoxicity in atherogenic western diet fed ApoE-/- C57BL/6 mouse model assessed as increase in SGPT level at 56 umol/kg, ip administered twice daily for 3.5 months; type: toxicity, organism-based; conditions: in vivo, 2555 h, dose 56 µmol/kg
Mus musculus [14] = assay: Antiatherosclerotic activity in atherogenic western diet fed ApoE-/- C57BL/6 mouse model assessed as reduction in atheromatic spots in aortic arch at 56 umol/kg, ip administered twice daily for 3.5 months by H&E staining based analysis; type: functional, organism-based; conditions: dose 56.0 µmol/kg
Mus musculus [15] = assay: Antioxidant activity in atherogenic western diet fed ApoE-/- C57BL/6 mouse model assessed as decrease in MDA level at 56 umol/kg, ip administered twice daily for 3.5 months relative to control; type: functional; design: scale not given: the % may be the effect or the level left; conditions: dose 56 µmol/kg, 2555 h
Mus musculus [16] = assay: Antiatherosclerotic activity in atherogenic western diet fed ApoE-/- C57BL/6 mouse model assessed as reduction in area of ascending aorta covered by atheromatic spots/lesions at 56 umol/kg, ip administered twice daily for 3.5 months relative to control; type: functional; design: scale not given: the % may be the effect or the level left; conditions: dose 56 µmol/kg, 2555 h
Mus musculus [17] = assay: Antiatherosclerotic activity in atherogenic western diet fed ApoE-/- C57BL/6 mouse model assessed as reduction in perimeter of ascending aorta covered by atheromatic spots/lesions at 56 umol/kg, ip administered twice daily for 3.5 months relative to control; type: functional; design: scale not given: the % may be the effect or the level left; conditions: dose 56 µmol/kg, 2555 h
Mus musculus [18] = assay: Antiatherosclerotic activity in atherogenic western diet fed ApoE-/- C57BL/6 mouse model assessed as reduction in atheromatic lesions in aortic sinus at 56 umol/kg, ip administered twice daily for 3.5 months by H&E staining based analysis; type: functional, organism-based; conditions: dose 56.0 µmol/kg
Mus musculus [19] = assay: Antiatherosclerotic activity in atherogenic western diet fed ApoE-/- C57BL/6 mouse model assessed as reduction in lesion area in ascending aorta at 56 umol/kg, ip administered twice daily for 3.5 months by H&E staining based analysis; type: functional, organism-based; conditions: dose 56.0 µmol/kg
[20] = Toxicity in western diet fed ApoE-/- C57BL/6 mouse model assessed as weight change at 56 umol/kg, ip administered twice daily for 3.5 months; type: organism-based; conditions: in vivo, 2555 h, dose 56 µmol/kg
Mus musculus [21] = assay: Antiatherosclerotic activity in atherogenic western diet fed ApoE-/- C57BL/6 mouse model assessed as reduction in fat deposition in ascending aorta at 56 umol/kg, ip administered twice daily for 3.5 months by H&E staining based analysis; type: functional, organism-based; conditions: dose 56.0 µmol/kg
Mus musculus [22] = assay: Antihypercholesterolemic activity in atherogenic western diet fed SKH2 mouse model assessed as decrease in LDL level at 56 umol/kg, ip administered twice daily for 3.5 months relative to control; type: functional; design: scale not given: the % may be the effect or the level left; conditions: dose 56 µmol/kg, 2555 h
Mus musculus [23] = assay: Antiatherosclerotic activity in atherogenic western diet fed ApoE-/- C57BL/6 mouse model assessed as decrease in LDL level in plasma at 56 umol/kg, ip administered twice daily for 3.5 months relative to control; type: functional; design: scale not given: the % may be the effect or the level left; conditions: dose 56 µmol/kg, 2555 h
Mus musculus [24] = assay: Antiatherosclerotic activity in atherogenic western diet fed ApoE-/- C57BL/6 mouse model assessed as decrease in total cholesterol level in plasma at 56 umol/kg, ip administered twice daily for 3.5 months relative to control; type: functional; design: scale not given: the % may be the effect or the level left; conditions: dose 56 µmol/kg, 2555 h
Mus musculus [25] = assay: Antihypercholesterolemic activity in atherogenic western diet fed SKH2 mouse model assessed as decrease in total cholesterol level at 56 umol/kg, ip administered twice daily for 3.5 months relative to control; type: functional; design: scale not given: the % may be the effect or the level left; conditions: dose 56 µmol/kg, 2555 h
Mus musculus [26] = assay: Antiatherosclerotic activity in atherogenic western diet fed ApoE-/- C57BL/6 mouse model assessed as decrease in LDL level in plasma at 56 umol/kg, ip administered twice daily for 3.5 months; type: functional, organism-based; conditions: dose 56.0 µmol/kg

SMILES: Br.CN1CCOC(O)(c2ccc3c(c2)Sc2ccccc2N3)C1 (stereo unspecified)
- Activity (Mus musculus [1]): Active
- Activity [2]: Non-Toxic
- Activity (Mus musculus [3]): Active
- Activity [4]: Non-Toxic
- Activity (Mus musculus [5]): Active
- Activity (Mus musculus [6]): 19%
- Activity (Mus musculus [7]): Active
- Activity (Mus musculus [8]): >100%
- Activity [9]: Non-Toxic
- Activity [10]: Non-Toxic
- Activity (Mus musculus [11]): Active
- Activity [12]: Non-Toxic
- Activity [13]: Non-Toxic
- Activity (Mus musculus [14]): Active
- Activity (Mus musculus [15]): 41%
- Activity (Mus musculus [16]): 55%
- Activity (Mus musculus [17]): 70%
- Activity (Mus musculus [18]): Active
- Activity (Mus musculus [19]): Active
- Activity [20]: Non-Toxic
- Activity (Mus musculus [21]): Active
- Activity (Mus musculus [22]): 76%
- Activity (Mus musculus [23]): 20%
- Activity (Mus musculus [24]): 20%
- Activity (Mus musculus [25]): 53%
- Activity (Mus musculus [26]): Active
